Results from ChEMBL document CHEMBL1151948, “Lactones from Angiopteris caudatiformis” (J Nat Prod, 2009).

System: HeLa
Experiment: Cytotoxicity against human HeLa cells after 48 hrs by MTT assay
Assay type: functional, cell-based

C[C@H](O)[C@H]1OC(=O)C[C@H]1O[C@H]1C=CC(=O)O[C@H]1C [ANGIOPTERLACTONE A]
IC50: 68.8 µM
